Here are results for 1 substance from patent US20120225123A1, “Use of Synergistic Combinations of an Avermectin and an Antineoplastic Compounds for the Treatment of Hematological Malignancies” (UNIVERSITY HEALTH NETWORK, priority 2009, published 2012).

Read-outs that look alike come from different tables or passages of the source.

For data set [1] the following is noted: cited from earlier work.
Data set [2] relates to OCI-AML2 cells. Description: Cytosolic calcium, Indo-1 AM staining. The class given is cell-based, human. As to the method:
Changes in cytosolic calcium concentration were detected with the fluorescent dye, Indo-1 AM (final concentration 6 μM) as previously described. ^17
Plasma membrane hyperpolarization can lead to calcium influx^23. Therefore, the effects of IVM on calcium influx in leukemia cells was tested. OCI-AML2 cells were treated with IVM and the concentration of intracellular calcium was measured by staining cells with the ratiometric dye, Indo-1 AM.

A further data set concerns DU145 cells. The experiment in a line: Intracellular chloride (SPQ) and cell size (forward light scatter), DU145. The class given is cell-based, human. To be noted: 10 μM IVM, 2 hours. As to the method:
Intracellular chloride concentration was measured using a fluorescent indicator for chloride, SPQ as previously described.^16 Upon binding halide ions like chloride, SPQ is quenched resulting in a decrease in fluorescence without a shift in wavelength. […] After 15 minutes of incubation with SPQ, cells were diluted 15:1 in HBSS and centrifuged. The supernatant was removed, cells were resuspended in 200 μl of fresh HBSS and incubated for 15 minutes in 37° C. to allow recovery from the hypotonic shock. Cells were then stained with propidium iodide and SPQ fluorescence in the PI negative cells was determined using an LSR-II flow cytometer (Beckton Dickonson, San Jose, Calif.) (excitation 351 nm, emission 485 nm). In parallel, changes in cell size were determined by measuring forward light scatter by flow cytometry. Results were analyzed with FlowJo version 8.8 (TreeStar, Ashland, Oreg.).

Data set [3] has as its system OCI-AML2 subcutaneous xenografts. The experiment in a line: OCI-AML2 xenograft, intraperitoneal ivermectin: Tunel staining and STAT1 Q-RT-PCR. The class given is in vivo, mouse. As to the method:
In order to measure gene expression changes in vivo, OCI-AML2 cells (2.5×10^5) were injected subcutaneously into the flanks of sub-lethally irradiated NOD/SCID mice. Once tumors were established, mice were treated with ivermectin (7 mg/kg) or vehicle control intraperitoneally for 5 days. After treatment, mice were sacrificed, and tumors harvested. mRNA was extracted and changes in STAT expression were measured by quantitative RT-PCR (QRT-PCR). Evidence of apoptosis was measured by Tunel staining and immunohistochemistry (Pathology Research Program, University Health Network, Toronto, Canada).
Changes in ROS production are indicative of a biological response to ivermectin, but are very difficult to measure in the context of a clinical trial. Therefore, to identify alterations in gene expression that are a result of ROS production and could be used as biomarkers in the context of a clinical trial, gene expression profiling analysis (using Affymetrix HG U133 Plus 2.0 arrays) RNA derived from OCI-AML2 cells treated with ivermectin for 30 hr and 40 hr was undertaken. One hundred and fifty genes were deregulated >4-fold at both time points (33 under-expressed; 117 over-expressed) compared to control. […] Changes in STAT1 expression in tumors from a leukemia xenograft model were also evaluated. […] After treatment, tumors were harvested, mRNA extracted, and STAT1 expression measured by Q-RT PCR.

The subject of data set [4] is STAT1 expression in DU145 and PPC-1 cells. The experiment in a line: Gene expression by Q-RT-PCR, DU145 and PPC-1. It counts as cell-based, human. As to the method:
Gene expression changes were evaluated in OCI AML2, 0937, HL60, DU145 and PPC-1 cells by real-time Q-RT-PCRas described previously^15, 47. The expression level of STAT1A, STAT1B, TRIM22, OAS1 and IFIT3 before and after incubation of leukemia cells with ivermectin was evaluated.

Another data set has as its system mice. To be noted: oral; cited from earlier work.
In a further data set the test system is dogs. The note with it: oral; cited from earlier work.
For data set [5], the system named is OCI-AML2 cells. Description: Plasma membrane potential, DiBAC4(3) staining, OCI-AML2. It counts as cell-based, human. The note with it: for plasma membrane polarization: 5 hours. As to the method: (§1) Plasma membrane potential was measured as previously described.^18 Briefly, cells treated with IVM or buffer control in RPM1, chloride replete medium (140 mM sodium chloride, 5 mM potassium chloride, 1 mM magnesium sulfate, 1.8 mM calcium acetate, 10 mM glucose, 10 mM HEPES and 0.1% (wt/v) BSA), or chloride free media where equimolar gluconate salts of sodium and potassium replaced the sodium chloride in the chloride replete medium. After incubation, cells were stained with DiBAC4(3) (final concentration 30 nM) and fluorescence determined by flow cytometry (BD FACS Canto, Becton Dickinson, San Jose, Calif.) (excitation=488 nm, emission=516 nm) Analysis was conducted using FACSDiva Software (BD Biosciences). Calibration curves were prepared using phosphate buffers with varying potassium ion concentrations as previously described.^18

Data set [6] concerns U937 and TEX leukemia cells as well as primary AML cells. Description: Plasma membrane potential, DiBAC4(3) staining, sensitive cells. The class given is cell-based, human. The note with it: after ivermectin treatment. On the procedure:
as §1
In nematodes, increases in intracellular chloride after IVM treatment cause membrane hyperpolarization. Therefore, the effects of IVM on plasma and mitochondrial membrane polarization was evaluated in leukemia cells. […] At increasing times after incubation, plasma membrane potential was measured by staining cells with DiBAC4(3) and flow cytometric analysis.

One may read the LD50 as the dose expected to kill half of the subjects tested.

As for ivermectin, the adverse effects entry in data set [1] (healthy volunteers, oral, dose of 120 (~2 mg/kg)) is on record as “no serious adverse effects were noted”; in data set [1] (patients with spinal injury, up to 1.6 mg/kg subcutaneously twice weekly for up to 12 weeks), “no significant adverse effects were reported”. Also, the intracellular calcium entry in the data set on OCI-AML2 cells [2] was “increased intracellular calcium”. The chloride influx entry in the data set with DU145 cells is on record as “chloride influx was not observed”. Moreover, the “apoptosis in the subcutaneous tumor, Tunel staining” value in data set [3] (7 mg/kg intraperitoneally for 5 days) was “increased apoptosis”. Further, the “STAT1 mRNA in tumors vs vehicle control” value in data set [3] (ivermectin for 5 days, Q-RT PCR) is listed as “increased in two of three tested tumors”. Moreover, in data set [4], the STAT1 expression result is given as “did not show changes in STAT1 expression”. For the same substance, the 50% lethal dose (LD50) is 28 to 30 mg/kg with mice and approximately 80 mg/kg in the data set with dogs. Besides, the plasma membrane polarization result is on record as “caused plasma membrane depolarization” in the data set with OCI-AML2 cells [5] (chloride deplete buffer) and “induced plasma membrane hyperpolarization” in the data set on OCI-AML2 cells [5] (chloride replete buffer). Also, the plasma membrane potential result is given as “induced membrane hyperpolarization in a dose dependent manner” with OCI-AML2 cells [5] (RPMI medium, as early as after 1 hour of treatment) and “demonstrated plasma membrane hyperpolarization” in data set [6].
